Laboratory results reported in US10441663B2, “Methods for treating cancer” (Bicycle Therapeutics Limited, priority 2016, dated 2019).
*1 amine or outer side, *2 acyl side, *3 side chain or, on linkers, in order; H or OH if unused. Where a SMILES comes first, the peptide text is derived from it. Bridges are numbered along the chain shown (N, C = ends). [ ]: non-standard residue; d: D form. The star is where a group is joined. X1 = COc1cc2cc(c1Cl)N(C)C(=O)C[C@H](OC(=O)[C@H](C)N(C)C(=O)CCSSC(C)CCC(=O)*)[C@]1(C)O[C@H]1[C@H](C)[C@@H]1C[C@@](O)(NC(=O)O1)[C@H](OC)/C=C/C=C(\C)C2; 1Nal = N[C@@H](Cc1cccc2ccccc12)C(=O)O; TBMB = c1c(C[*:1])cc(C[*:3])cc1C[*:2]; Tle = CC(C)(C)[C@H](N)C(=O)O; βAla = NCCC(=O)O; Sar = CNCC(=O)O

Columns and labels:
3LL syngeneic model = experiment: In vivo efficacy of BT1718 alone or in combination with Anti-PD-1 antibody in 3LL syngeneic model (Example 10); set-up: species or system Mus Musculus
Procedure: The objective of the research was to evaluate the in vivo anti-tumor efficacy of BT1718 alone or in combination with Anti-PD-1 antibody in the treatment of the subcutaneous 3LL syngeneic model in C57BL/6 mice.
The 3LL tumor cells were maintained in vitro as a monolayer culture in medium supplemented with 10% heat inactivated fetal bovine serum at 37° C. in an atmosphere of 5% CO2 in air. The tumor cells were routinely subcultured twice weekly by trypsin-EDTA treatment. The cells growing in an exponential growth phase will be harvested and counted for tumor inoculation.
Each mouse was inoculated subcutaneously at the right flank with 3LL tumor cells (1×106) in 0.1 ml of PBS for tumor development. The animals were randomized and treatment was started when the average tumor volume reaches approximately 105 mm^3 for the efficacy study. The test article administration and the animal numbers in each group were shown in the experimental design table (Table 52).
(§1) All the procedures related to animal handling, care and the treatment in the study were performed according to the guidelines of the Association for Assessment and Accreditation of Laboratory Animal Care (AAALAC). At the time of routine monitoring, the animals were daily checked for any effects of tumor growth and treatments on normal behavior such as mobility, food and water consumption (by looking only), body weight gain/loss (body weights were measured every day), eye/hair matting and any other abnormal effect as stated in the protocol. Death and observed clinical signs were recorded on the basis of the numbers of animals within each subset.
(§2) The major endpoint was to see if the tumor growth could be delayed or mice could be cured. Tumor size was measured three times weekly in two dimensions using a caliper, and the volume was expressed in mm^3 using the formula: V=0.5 a×b2 where a and b are the long and short diameters of the tumor, respectively. The tumor size was then used for calculations of T/C value. The T/C value (in percent) is an indication of antitumor effectiveness; T and C are the mean volumes of the treated and control groups, respectively, on a given day.
(§3) TGI was calculated for each group using the formula: TGI (%)=[1−(Ti−T0)/(Vi−V0)]×100; Ti is the average tumor volume of a treatment group on a given day, T0 is the average tumor volume of the treatment group on the day of treatment start, Vi is the average tumor volume of the vehicle control group on the same day with Ti, and V0 is the average tumor volume of the vehicle group on the day of treatment start.
(§4) Summary statistics, including mean and the standard error of the mean (SEM), are provided for the tumor volume of each group at each time point.
(§5) Statistical analysis of difference in tumor volume among the groups was conducted on the data obtained at the best therapeutic time point after the final dose.
(§6) A one-way ANOVA was performed to compare tumor volume among groups, and when a significant F-statistics (a ratio of treatment variance to the error variance) was obtained, comparisons between groups were carried out with Games-Howell test. All data were analyzed using Prism. P<0.05 was considered to be statistically significant.

SNU-16 xenograft = experiment: In vivo efficacy of BT1718 in SNU-16 xenograft; set-up: species or system Mus Musculus; key to Best response at 10 mg/kg: CR complete response; PR partial response
Procedure: The objective of this study was to evaluate the in vivo anti-tumor efficacy of BT1718in treatment of HT1080, NCI-H292, NCI-H1975, MDA-MB-231, HCC1806, RPMI2650, HCT-15, HT-29 and SNU-16 xenograft in BALB/c nude mice.
The HT1080, NCI-H292, NCI-H1975, MDA-MB-231, HCC1806, RPMI2650, HCT-15, HT-29 and SNU-16 tumor cells were maintained in vitro as a monolayer culture in medium supplemented with 10% heat inactivated fetal bovine serum at 37° C. in an […]. The tumor cells will be routinely subcultured twice weekly by trypsin-EDTA treatment. The cells growing in an exponential growth phase will be harvested and counted for tumor inoculation.
Mouse was inoculated subcutaneously at the right flank with tumor cells for tumor development. The animals were randomized and treatment was started when the average tumor reaches certain volume for the efficacy study, the inoculating cell amounts and starting tumor size were shown as below in Table 9. The test article administration and the animal numbers in each group were shown in the experimental design in Table 10.
as §1
as §2, with “a×b^2” for “a×b2”
as §3, §4, §5, §6

[1] = Vehicle, ip, biw + BT1718, 3 mpk, iv, biw, day 14
[2] = Vehicle, ip, biw + BT1718, 10 mpk, iv, biw, day 14

Structure (SMILES): COc1cc2cc(c1Cl)N(C)C(=O)C[C@H](OC(=O)[C@H](C)N(C)C(=O)CCSSC(C)CCC(=O)NCCC(=O)N(C)CC(=O)N(C)CC(=O)N(C)CC(=O)N(C)CC(=O)N(C)CC(=O)N(C)CC(=O)N(C)CC(=O)N(C)CC(=O)N(C)CC(=O)N(C)CC(=O)N[C@@H](C)C(=O)N[C@H]1CSCc3cc4cc(c3)CSC[C@H](NC(=O)[C@@H](C)NC(=O)[C@H](Cc3cccc5ccccc35)NC(=O)[C@H](CCC(=O)O)NC(=O)[C@H](CC(N)=O)NC(=O)[C@@H](C)NC1=O)C(=O)N[C@@H](CCC(=O)O)C(=O)N[C@@H](CC(=O)O)C(=O)N[C@@H](Cc1ccccc1)C(=O)N[C@@H](Cc1ccc(O)cc1)C(=O)N[C@@H](CC(=O)O)C(=O)N[C@@H](C(C)(C)C)C(=O)N[C@H](C(N)=O)CSC4)[C@]1(C)O[C@H]1[C@H](C)[C@@H]1C[C@@](O)(NC(=O)O1)[C@H](OC)/C=C/C=C(\C)C2 (stereo partly drawn) [BT1718] ({X1-βAla}-[Sar][Sar][Sar][Sar][Sar][Sar][Sar][Sar][Sar][Sar]AC[dA]NE[1Nal][dA]CEDFYD[Tle]C-NH2; linker 12-18-25 via TBMB (inferred))
- TGI (3LL syngeneic model; BT1718 3 mg/kg, day 14): 72.9%
- Tumor Volume (3LL syngeneic model; BT1718 3 mg/kg, day 14): 612 mm^3
- TGI (3LL syngeneic model; BT1718 10 mg/kg, day 14): 98.1%
- Tumor Volume (3LL syngeneic model; BT1718 10 mg/kg, day 14): 132 mm^3
- tumor volume trace over time (3LL syngeneic model; Vehicle, ip, biw + BT1718, 3 mpk, iv, biw, day 0): 96 ± 7 mm^3
- tumor volume trace over time (3LL syngeneic model; Vehicle, ip, biw + BT1718, 3 mpk, iv, biw, day 3): 167 ± 29 mm^3
- tumor volume trace over time (3LL syngeneic model; Vehicle, ip, biw + BT1718, 3 mpk, iv, biw, day 7): 320 ± 71 mm^3
- tumor volume trace over time (3LL syngeneic model; Vehicle, ip, biw + BT1718, 3 mpk, iv, biw, day 10): 396 ± 79 mm^3
- T/C (3LL syngeneic model; [1]): 30.6%
- TGI (3LL syngeneic model; [1]): 72.9%
- tumor volume trace over time (3LL syngeneic model; [1]): 612 ± 133 mm^3
- Tumor Volume (3LL syngeneic model; Vehicle, ip, biw + BT1718, 3 mpk, iv, biw, day 14, Mean ± SEM): 612 ± 133 mm^3
- tumor volume trace over time (3LL syngeneic model; Vehicle, ip, biw + BT1718, 3 mpk, iv, biw, day 17): 968 ± 211 mm^3
- tumor volume trace over time (3LL syngeneic model; Vehicle, ip, biw + BT1718, 3 mpk, iv, biw, day 21): 1177 ± 196 mm^3
- tumor volume trace over time (3LL syngeneic model; Vehicle, ip, biw + BT1718, 10 mpk, iv, biw, day 0): 96 ± 6 mm^3
- tumor volume trace over time (3LL syngeneic model; Vehicle, ip, biw + BT1718, 10 mpk, iv, biw, day 3): 134 ± 17 mm^3
- tumor volume trace over time (3LL syngeneic model; Vehicle, ip, biw + BT1718, 10 mpk, iv, biw, day 7): 141 ± 18 mm^3
- tumor volume trace over time (3LL syngeneic model; Vehicle, ip, biw + BT1718, 10 mpk, iv, biw, day 10): 128 ± 16 mm^3
- T/C (3LL syngeneic model; [2]): 6.6%
- TGI (3LL syngeneic model; [2]): 98.1%
- tumor volume trace over time (3LL syngeneic model; [2]): 132 ± 26 mm^3
- Tumor Volume (3LL syngeneic model; Vehicle, ip, biw + BT1718, 10 mpk, iv, biw, day 14, Mean ± SEM): 132 ± 26 mm^3
- tumor volume trace over time (3LL syngeneic model; Vehicle, ip, biw + BT1718, 10 mpk, iv, biw, day 17): 129 ± 33 mm^3
- tumor volume trace over time (3LL syngeneic model; Vehicle, ip, biw + BT1718, 10 mpk, iv, biw, day 21): 104 ± 41 mm^3
- Body Weight (SNU-16 xenograft; 1 mpk biw, day 0): 22.9 ± 0.5 g
- Tumor Volume (SNU-16 xenograft; 1 mpk biw, day 0): 160 ± 24 mm^3
- Body Weight (SNU-16 xenograft; 1 mpk biw, day 2): 22.8 ± 0.5 g
- Tumor Volume (SNU-16 xenograft; 1 mpk biw, day 2): 160 ± 15 mm^3
- Body Weight (SNU-16 xenograft; 1 mpk biw, day 4): 23.0 ± 0.5 g
- Tumor Volume (SNU-16 xenograft; 1 mpk biw, day 4): 140 ± 12 mm^3
- Body Weight (SNU-16 xenograft; 1 mpk biw, day 7): 23.0 ± 0.4 g
- Tumor Volume (SNU-16 xenograft; 1 mpk biw, day 7): 137 ± 13 mm^3
- Body Weight (SNU-16 xenograft; 1 mpk biw, day 9): 22.7 ± 0.5 g
- Tumor Volume (SNU-16 xenograft; 1 mpk biw, day 9): 139 ± 9 mm^3
- Body Weight (SNU-16 xenograft; 1 mpk biw, day 11): 23.0 ± 0.5 g
- Tumor Volume (SNU-16 xenograft; 1 mpk biw, day 11): 142 ± 11 mm^3
- Body Weight (SNU-16 xenograft; 1 mpk biw, day 14): 23.3 ± 0.5 g
- Tumor Volume (SNU-16 xenograft; 1 mpk biw, day 14): 176 ± 9 mm^3
- Body Weight (SNU-16 xenograft; 3 mpk biw, day 0): 22.7 ± 0.3 g
- Tumor Volume (SNU-16 xenograft; 3 mpk biw, day 0): 161 ± 29 mm^3
- Body Weight (SNU-16 xenograft; 3 mpk biw, day 2): 22.1 ± 0.5 g
- Tumor Volume (SNU-16 xenograft; 3 mpk biw, day 2): 115 ± 13 mm^3
- Body Weight (SNU-16 xenograft; 3 mpk biw, day 4): 21.8 ± 0.2 g
- Tumor Volume (SNU-16 xenograft; 3 mpk biw, day 4): 36 ± 4 mm^3
- Body Weight (SNU-16 xenograft; 3 mpk biw, day 7): 21.5 ± 0.3 g
- Tumor Volume (SNU-16 xenograft; 3 mpk biw, day 7): 25 ± 4 mm^3
- Body Weight (SNU-16 xenograft; 3 mpk biw, day 9): 20.0 ± 0.1 g
- Tumor Volume (SNU-16 xenograft; 3 mpk biw, day 9): 18 ± 1 mm^3
- Body Weight (SNU-16 xenograft; 3 mpk biw, day 11): 20.2 ± 0.6 g
- Tumor Volume (SNU-16 xenograft; 3 mpk biw, day 11): 5 ± 3 mm^3
- Body Weight (SNU-16 xenograft; 3 mpk biw, day 14): 20.6 ± 0.6 g
- Tumor Volume (SNU-16 xenograft; 3 mpk biw, day 14): 0 ± 0 mm^3
- Best response at 10 mg/kg (SNU-16 xenograft; SNU-16, 10 mg/kg): CR
- TGI (SNU-16 xenograft; SNU-16, 1 mpk, biw, day 14): 51.4%
- Tumor Volume (SNU-16 xenograft; SNU-16, 1 mpk, biw, day 14): 304 ± 43 mm^3
- TGI (SNU-16 xenograft; SNU-16, 3 mpk, biw, day 14): 94.5%
- Tumor Volume (SNU-16 xenograft; SNU-16, 3 mpk, biw, day 14): 176 ± 9 mm^3
- TGI (SNU-16 xenograft; SNU-16, 10 mpk, biw, day 14): 155%
- Tumor Volume (SNU-16 xenograft; SNU-16, 10 mpk, biw, day 14): 0 ± 0 mm^3
- Minimally Effective Dose IV BIW (SNU-16 xenograft; SNU-16, dose leading to tumor-stasis): 3 mg/kg
- dosing suspension until re-growth to 150 mm3 (SNU-16 xenograft; after 10 mg/kg biw): 7 weeks
- tumor response (SNU-16 xenograft; after 2 weeks 10 mg/kg biw): completely regressed
- dosing time until tumor regression on resumed treatment (SNU-16 xenograft; mouse, in vivo): 1-2 weeks
